Data on one compound can be found in patent publication US5310667A (priority 1989, dated 1994).

In assay [1] the test system is tobacco plants transformed with wild-type EPSP synthase gene. The assay is described as follows: Relative effect of glyphosate spraying on transformed tobacco. The format is in vivo, Nicotiana tobacam CV H425. Particulars: WT, 0 total kill, 10 no effect, best transformant. The text has this: A culture of A. tumefaciens cells containing pMON567/pGV3111-SE was contacted with leaf disks taken from tobacco plants (Nicotiana tobacam CV H425) as described by Horsch (1985). The Agrobacterium cells inserted the variant EPSP synthase gene into the chromosomes of the plant cells. Plant cells resistant to kanamycin were selected and regenerated into differentiated plants by the procedure of Horsch (1985).
Progeny of these plants were propagated and grown to a rosette diameter of about 10 cm corresponding to a plant age of about four weeks. The plants were sprayed with glyphosate at levels corresponding to 0.4, 2.0 and 3.6 pounds acid equiv./acre. The effect of glyphosate on the transformed plants were scored at 7, 14 and 28 days. The effect was translated to a numerical scale of 0-10 in which 0 represents total kill and 10 is the normal, unsprayed plant. […] The values represent the best transformant for both wild-type EPSP synthase and glyphosate-tolerant EPSP synthase genes.

For assay [2], the target named is wild type maize pre-EPSP synthase (pMON9951 product) (Zea mays, UniProt A0A1D6NVZ6). The assay can be described thus: EPSP synthase activity of in vitro translation product. The format is biochemical. Particulars: 1.0 mM glyphosate. The method, then:
(§1) To an assay mix (40 μl) containing shikimate-3-phosphate (2 mM), ^14 C-phosphoenolpyruvate (1 mM, 1.2 mCi/mmol), ammonium molybdate (0.1 mM), potassium fluoride (5 mM) in 50 mM HEPES-KOH, pH 7, was added the extract and incubated at 25° C. for 2 mins. The reaction was quenched by the addition of 50 μl of 50 μl of 90% ethanol/0.1M acetic acid, pH 4.5. 70 μl of the reaction mixture was loaded on a SynchroPak AX100 HPLC column (0.4×25 cm) and the column was eluted with 0.5M potassium phosphate, pH 5.5 at 1 ml/min. The radioactivity of the eluent was monitored using a Radiomatic Flo-One Beta Instrument. (Radiomatics, Fla.). The EPSP synthase activity was determined by measurement of the conversion of ^14 C-PEP to ^14 C-EPSP synthase, both of which are resolved under the above conditions of chromatography. The protein content of the extract was determined by the method of Bradford (Biorad Labs, Calif.). The specific activity of the extract is expressed as nanomoles of EPSP synthase formed/min/mg protein.
(§2) The linearized plasmid DNA was transcribed in vitro with T7 polymerase essentially as described by Krieg et al. (1984). The standard reaction buffer contained 40 mM Tris-HCl (pH 7.9), 6 mM MgCl2, 10 mM dithiothreitol, 2 mM spermidine, 80 U RNAsin ribuonuclease inhibitor, 0.5 mM each of ATP, GTP, CTP and UTP, in a final reaction volume of 100 μl. The final RNA pellet was resuspended in 20 μl of sterile water and stored at -80° C. A standard translation reaction contained 100 μl of nuclease-treated rabbit reticulocyte lysate, 5.7 μl of a 19-amino acid mixture (minus methionine) at 1 mM each, 5.7 μl of RNA (total RNA transcripts derived from 0.63 μg of plasmid DNA), 16 μl RNAsin (20U/μl) ribonuclease inhibitor, and 58.3 μl of [^35 S] methionine (14-15 mCi/ml). The in vitro translation products were stored frozen at -80° C.
(§3) The products of the in vitro translation were then assayed for EPSP synthase activity as described herein.

Assay [3] addresses variant maize preenzyme product of pMON8617 (glycine to alanine and glycine to aspartate) (Zea mays, UniProt A0A1D6NVZ6, G163A/G206D). The assay is described as above. It counts as biochemical. Here is the method: as §1, §2, §3
Assay [4] has as its target T1, variant petunia EPSP synthase with glycine (101) to alanine and glycine (144) to asparagine substitutions (Petunia hybrida, UniProt P11043, G173A/G216N).
T1 construct: GGT codon for glycine (144) in the mature petunia EPSP synthase
The assay is described as follows: EPSP synthase kinetic constants (Ki glyphosate, Km PEP). The format is biochemical. The method, then:
Kinetic constants (appKm PEP and appKi glyphosate) were determined for EPSP synthase as described below. Substrate kinetic parameters were determined at pH 7.0 in 50 mM HEPES (N-[2-hydroxyethyl]piperazine-N'-[2-ethanesulfonic acid]) buffer in the presence of 2 mM S3P and varying amounts of ^14 C-PEP (10 μM-400 μM), for 2.0 minutes at 25° C. Reactions were quenched with 100 mM Na Acetate in ethanol, pH 4.5, centrifuged and analyzed for product EPSP formation by HPLC with flow radioactivity detection. HPLC conditions were 0.35 MKPi, pH 6.5, on a Synchropak AX100 column at 1.0 ml/min.

For assay [5], the system named is variant soybean EPSPS (gly 104 to ala, gly 147 to asp) from pMON9953. The assay can be described thus: Glyphosate tolerance of EPSP synthase extracted from bacteria. The format is biochemical, Glycine max. Particulars: enzyme extracted from E. coli SR481 with pMON9953. The text has this:
An E. coli expression vector for wild type soybean EPSPS was constructed by engineering an NcoI site at the predicted start of the mature soybean coding sequence by the method of Kunkel (1985). This sequence was then inserted into pMON9563, replacing the coding sequence for mature petunia EPSPS resulting in pMON9904.

The target in assay [6] is petunia EPSP synthase with alanine for the first glycine of the conserved region (Petunia hybrida, UniProt P11043, G170A). The assay can be described thus: Glyphosate sensitivity of EPSP synthase variant. Particulars: relative to wild type. The format is biochemical.
Assay [7] addresses wild type petunia EPSP synthase (Petunia hybrida, UniProt P11043). The assay can be described thus: EPSP synthase kinetic constants (appKi glyphosate, appKm PEP). It counts as biochemical.
Description: The reaction was quenched by the addition of 50 μl of 50 μl of 90% ethanol/0.1M acetic acid, pH 4.5. 70 μl of the reaction mixture was loaded on a SynchroPak AX100 HPLC column (0.4×25 cm) and the column was eluted with 0.5M potassium phosphate, pH 5.5 at 1 ml/min. The radioactivity of the eluent was monitored using a Radiomatic Flo-One Beta Instrument. […] The protein content of the extract was determined by the method of Bradford (Biorad Labs, Calif.). The specific activity of the extract is expressed as nanomoles of EPSP synthase formed/min/mg protein.

Chain of variant maize preenzyme product of pMON8617 (glycine to alanine and glycine to aspartate) (A0A1D6NVZ6 entry or part of it G163A/G206D): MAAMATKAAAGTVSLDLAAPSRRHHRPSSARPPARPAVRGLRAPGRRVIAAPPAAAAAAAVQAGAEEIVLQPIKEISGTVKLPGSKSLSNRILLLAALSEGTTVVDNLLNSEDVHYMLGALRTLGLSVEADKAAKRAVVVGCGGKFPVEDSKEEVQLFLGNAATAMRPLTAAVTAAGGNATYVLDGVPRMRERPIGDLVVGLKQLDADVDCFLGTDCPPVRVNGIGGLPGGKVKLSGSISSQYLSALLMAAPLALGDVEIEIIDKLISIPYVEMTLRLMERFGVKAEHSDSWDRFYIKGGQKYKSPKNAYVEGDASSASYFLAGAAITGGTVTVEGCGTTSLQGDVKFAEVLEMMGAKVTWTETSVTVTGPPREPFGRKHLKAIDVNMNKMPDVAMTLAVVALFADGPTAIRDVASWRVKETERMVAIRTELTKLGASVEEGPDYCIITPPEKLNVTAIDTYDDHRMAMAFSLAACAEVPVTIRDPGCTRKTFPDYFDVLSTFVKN
T1 sequence (P11043 73-516 G173A/G216N): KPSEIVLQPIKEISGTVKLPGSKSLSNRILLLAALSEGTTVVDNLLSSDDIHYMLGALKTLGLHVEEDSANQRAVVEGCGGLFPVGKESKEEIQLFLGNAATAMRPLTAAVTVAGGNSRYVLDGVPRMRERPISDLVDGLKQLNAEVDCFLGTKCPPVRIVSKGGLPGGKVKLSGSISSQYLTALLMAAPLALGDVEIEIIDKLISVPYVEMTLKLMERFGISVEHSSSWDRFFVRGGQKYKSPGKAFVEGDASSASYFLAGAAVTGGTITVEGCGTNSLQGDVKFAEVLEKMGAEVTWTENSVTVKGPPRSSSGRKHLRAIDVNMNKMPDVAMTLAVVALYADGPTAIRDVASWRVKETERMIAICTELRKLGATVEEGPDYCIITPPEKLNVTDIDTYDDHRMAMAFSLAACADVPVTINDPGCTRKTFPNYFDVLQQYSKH
Chain of wild type maize pre-EPSP synthase (pMON9951 product) (A0A1D6NVZ6 1-506): as the sequence (A0A1D6NVZ6 entry or part of it G163A/G206D) above, with A163G, D206G counted along it
Chain of wild type petunia EPSP synthase (P11043 73-516): as the sequence (P11043 73-516 G173A/G216N) above, with A101G, N144G counted along it
Chain of petunia EPSP synthase with alanine for the first glycine of the conserved region (P11043 73-516 G170A): as the sequence (P11043 73-516 G173A/G216N) above, with G98A, A101G, N144G counted along it

On to `O=C(O)CNCP(=O)(O)O` [glyphosate, N-phosphonomethylglycine], for which the “Relative Effect of Glyphosate” value in assay [1] (0.4 pounds/Acre, day 7) was determined as 6.0; in assay [1] (0.4 pounds/Acre, day 14), 7.0; in assay [1] (0.4 pounds/Acre, day 28) it was 9.0; in assay [1] (2.0 pounds/Acre, day 7), 5.0; in assay [1] (2.0 pounds/Acre, day 14), 1.8; in assay [1] (2.0 pounds/Acre, day 28) it was 0.8. The “Relative Effect of Glyphosate” value is recorded as 5.0 in assay [1] (3.6 pounds/Acre, day 7); 1.7 in assay [1] (3.6 pounds/Acre, day 14); 0.8 in assay [1] (3.6 pounds/Acre, day 28). Besides, in assay [2], the “EPSP synthase activity in the presence of glyphosate” value is listed as “no activity was detected”. Moreover, the “inhibition of EPSP synthase activity” value in assay [3] (1 mM glyphosate) is given as “only slight inhibition”; in assay [3] (100 mM glyphosate) it was “greater inhibition, but still showing detectable activity”. This compound returned a Ki for glyphosate in assay [4] of 960 µM. In assay [4] (Ki glyphosate / Km PEP), the Ki/Km was 10.5. Moreover, the “glyphosate tolerance of extracted EPSP synthase” value in assay [5] is reported as “glyphosate tolerant”. Further, in assay [6], the “change in glyphosate sensitivity” value is given as “no attendant changes in glyphosate sensitivity”. The compound further showed an inhibition constant (Ki) in assay [7] of 0.4 µM.

As a reminder, the Ki is the dissociation constant of the complex between target and ligand, obtained from inhibition or displacement. A low value points to a stronger hold on the target.
